Ends that are not written are not given here.
What was measured:
ADGRF1 [1] = biological target: T1, ADGRF1 (Homo sapiens, UniProt Q5T601); assay: BRET assay using TRUPATH biosensors, Gi activation of ADGRF1; assay type: cell-based; settings: ADGRF1 WT; for Emax (mean ± s.e.m.): n = 3; for EC50: n = 3, read-out: pEC50 (mean ± s.e.m.) (converted)
T1 construct: Flag (N); expressed in transfected cells; host or cells: HEK293F
T1 sequence (Q5T601 20-910): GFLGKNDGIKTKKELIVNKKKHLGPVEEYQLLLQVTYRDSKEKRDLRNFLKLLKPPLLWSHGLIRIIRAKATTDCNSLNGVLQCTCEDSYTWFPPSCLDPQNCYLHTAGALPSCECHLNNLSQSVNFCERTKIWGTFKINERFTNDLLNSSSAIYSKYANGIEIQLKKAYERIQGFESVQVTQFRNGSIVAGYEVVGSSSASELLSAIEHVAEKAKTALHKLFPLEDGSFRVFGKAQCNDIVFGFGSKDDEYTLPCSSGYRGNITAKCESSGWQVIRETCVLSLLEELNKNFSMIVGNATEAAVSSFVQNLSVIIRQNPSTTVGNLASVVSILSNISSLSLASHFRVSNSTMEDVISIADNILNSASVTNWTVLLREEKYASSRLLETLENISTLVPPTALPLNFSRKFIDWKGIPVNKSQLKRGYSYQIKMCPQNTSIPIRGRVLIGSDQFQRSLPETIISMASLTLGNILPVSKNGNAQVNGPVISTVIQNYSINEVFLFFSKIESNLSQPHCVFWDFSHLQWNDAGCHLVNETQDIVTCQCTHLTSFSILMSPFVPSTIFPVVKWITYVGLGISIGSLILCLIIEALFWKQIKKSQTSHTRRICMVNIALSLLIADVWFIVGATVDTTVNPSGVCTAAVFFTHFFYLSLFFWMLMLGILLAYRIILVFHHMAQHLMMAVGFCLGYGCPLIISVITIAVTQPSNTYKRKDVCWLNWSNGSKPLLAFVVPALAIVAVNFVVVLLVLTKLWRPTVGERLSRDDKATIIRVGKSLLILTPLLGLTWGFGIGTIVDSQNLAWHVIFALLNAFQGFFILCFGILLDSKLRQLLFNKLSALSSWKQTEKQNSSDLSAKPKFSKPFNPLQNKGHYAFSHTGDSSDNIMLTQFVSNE
Description: (§1) To study the synthetic stalk peptide-induced G protein activation of ADGRD1 and ADGRF1, a BRET assay using TRUPATH biosensors was conducted to measure the proximal interaction between RLuc8 fused to the Gα subunit and GFP2 fused to the Gγ subunit. The TRUPATH suite of biosensors was obtained from Addgene (Addgene kit no. 1000000163) as a gift from B. Roth, including GαsS-RLuc8, Gαi1-RLuc8, Gβ3 and Gγ9-GFP2 as previously described.
(§2) The wild-type or mutant ADGRD1 and ADGRF1 were transiently co-transfected with plasmids encoding Gα-RLuc8 (GαsS-RLuc8 for Gs activation assay; Gαi1-RLuc8 for Gi activation assay), Gβ3 and Gγ9-GFP2 at a ratio of 2:1:1:1 (receptor plasmid, 800 ng; G protein subunit plasmids, 400 ng for each) in 2 ml HEK293F cells at a density of 1.2 × 10^6 cells per ml. Cell cultivation and receptor surface expression measurement were performed as described above. The cells were plated into 96-well white plates (40,000 cells per well) in 60 μl of assay buffer and incubated at 37 °C for 30 min. Then 10 μl of freshly prepared 50 μM coelenterazine 400a (Nanolight Technologies) was added. […] The cells were stimulated with 30 μl of synthetic stalk peptide at different concentrations and the BRET signals were monitored continuously five times. The last measurements were used in data analysis. The BRET ratios were calculated as the ratio of the GFP2 emission to RLuc8 emission.

ADGRD1 = biological target: T2, ADGRD1 (Homo sapiens, UniProt Q6QNK2); assay: BRET assay using TRUPATH biosensors, G protein activation of ADGRD1; assay type: cell-based; settings: Gs, ADGRD1 WT, n = 3; for EC50: read-out: pEC50 (mean ± s.e.m.) (converted)
T2 construct: Flag (N); expressed in transfected cells; host or cells: HEK293F
T2 sequence (Q6QNK2 26-874): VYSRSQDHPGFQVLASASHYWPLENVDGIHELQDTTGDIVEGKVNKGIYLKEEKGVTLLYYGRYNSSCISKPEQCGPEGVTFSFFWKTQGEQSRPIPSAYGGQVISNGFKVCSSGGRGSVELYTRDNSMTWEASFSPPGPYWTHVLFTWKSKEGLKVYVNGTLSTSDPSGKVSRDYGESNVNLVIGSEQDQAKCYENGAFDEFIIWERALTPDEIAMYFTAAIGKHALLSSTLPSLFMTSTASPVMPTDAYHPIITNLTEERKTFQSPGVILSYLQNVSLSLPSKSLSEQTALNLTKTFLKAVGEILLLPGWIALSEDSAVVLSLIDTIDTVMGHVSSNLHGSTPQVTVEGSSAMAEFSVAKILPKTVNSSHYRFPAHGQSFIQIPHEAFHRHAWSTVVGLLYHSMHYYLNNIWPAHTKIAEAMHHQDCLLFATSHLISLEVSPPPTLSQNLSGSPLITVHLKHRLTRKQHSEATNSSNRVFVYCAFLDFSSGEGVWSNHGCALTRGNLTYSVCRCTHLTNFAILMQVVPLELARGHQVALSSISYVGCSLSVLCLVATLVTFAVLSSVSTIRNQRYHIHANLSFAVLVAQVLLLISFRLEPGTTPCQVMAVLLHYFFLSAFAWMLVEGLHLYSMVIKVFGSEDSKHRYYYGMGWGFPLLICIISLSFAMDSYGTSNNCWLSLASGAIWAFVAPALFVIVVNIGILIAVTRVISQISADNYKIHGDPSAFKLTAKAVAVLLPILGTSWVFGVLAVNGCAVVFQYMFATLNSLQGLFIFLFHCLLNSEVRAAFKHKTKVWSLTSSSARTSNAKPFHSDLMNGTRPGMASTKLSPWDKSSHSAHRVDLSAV
Description: as §1, §2

ADGRF1 [2] = assay: Cell-surface expression by flow cytometry, ADGRF1; assay type: cell-based, human; settings: anti-Flag antibody, three independent measurements in duplicate
Description: The wild-type ADGRD1 and ADGRF1 and mutants used in functional studies were constructed into a pTT5 vector with a Flag tag at the N terminus for receptor expression measurement. The basal activity of ADGRD1 and ADGRF1 in mediating Gs signalling was measured by a cAMP accumulation assay using a LANCE Ultra cAMP detection kit (PerkinElmer) following the manufacturer’s instruction. In brief, 2 ml HEK293F cells (Invitrogen; cells were routinely tested for mycoplasma contamination) at a density of 1.2 × 10^6 cells per ml were transiently transfected with 2,000 ng plasmid of the wild-type or mutant receptor and cultured at 37 °C for 48 h with 5% CO2 atmosphere in a shaker shaking at 220 rpm. After collection, the cell-surface expression of the receptors was measured by incubating 10 μl cells with 15 μl monoclonal anti-Flag M2-FITC antibody (Sigma; 1:120 diluted in TBS supplemented with 4% BSA and 20% viability staining solution 7-AAD (Invitrogen)) at 4 °C for 20 min. After incubation, 175 μl TBS buffer was added and the fluorescent signal was measured using a flow cytometry reader (Guava easyCyte HT, Millipore).

[3] = ADGRF1 constructs (pF1 Gi part of table)

Row | Molecule | Emax (mean ± s.e.m.) (ADGRF1 [1]) | EC50 (ADGRF1 [1]) | Emax (mean ± s.e.m.) (ADGRD1) | EC50 (ADGRD1) | other results
1 | TSFSILASPFVP [pF1 (M573^S7A)] | 87 ± 11 % of WT | 0.501 µM |  |  | 
2 | CC[C@H](C)[C@H](NC(=O)[C@H](C)NC(=O)[C@H](Cc1ccccc1)NC(=O)[C@H](CC(N)=O)NC(=O)[C@@H](N)[C@@H](C)O)C(=O)N[C@@H](CC(C)C)C(=O)N[C@@H](CCSC)C(=O)N[C@@H](CCC(N)=O)C(=O)N[C@H](C(=O)N[C@H](C(=O)N1CCC[C@H]1C(=O)N[C@@H](CC(C)C)C(=O)N[C@@H](CCC(=O)O)C(=O)O)C(C)C)C(C)C [pD1] | 82 ± 8 % of WT | 0.132 µM |  |  | 
3 | TNFAIAMQVVPLE [pD1 (L550^S6A)] |  |  | 53 ± 5 % of WT | 0.166 µM | 
4 | TSFSIAMSPFVP [pF1 (L572^S6A)] | 101 ± 12 % of WT | 0.676 µM |  |  | 
5 | TNFAILAQVVPLE [pD1 (M551^S7A)] |  |  | 79 ± 10 % of WT | 0.263 µM | 
6 | TSASILMSPFVP [pF1 (F569^S3A)] | 108 ± 7 % of WT | 0.38 µM |  |  | 
7 | TNAAILMQVVPLE [pD1 (F547^S3A)] |  |  | 69 ± 13 % of WT | 0.724 µM | 
8 | G702^4.45bY (protein, UniProt Q5T601 20-910, looked up, variant G702Y) Adhesion G-protein coupled …: GFLGKNDGIKTKKELIVNKKKHLGPVEEYQLLLQVTYRDSKEKRDLRNFLKLLKPPLLWSHGLIRIIRAKATTDCNSLNGVLQCTCEDSYTWFPPSCLDPQNCYLHTAGALPSCECHLNNLSQSVNFCERTKIWGTFKINERFTNDLLNSSSAIYSKYANGIEIQLKKAYERIQGFESVQVTQFRNGSIVAGYEVVGSSSASELLSAIEHVAEKAKTALHKLFPLEDGSFRVFGKAQCNDIVFGFGSKDDEYTLPCSSGYRGNITAKCESSGWQVIRETCVLSLLEELNKNFSMIVGNATEAAVSSFVQNLSVIIRQNPSTTVGNLASVVSILSNISSLSLASHFRVSNSTMEDVISIADNILNSASVTNWTVLLREEKYASSRLLETLENISTLVPPTALPLNFSRKFIDWKGIPVNKSQLKRGYSYQIKMCPQNTSIPIRGRVLIGSDQFQRSLPETIISMASLTLGNILPVSKNGNAQVNGPVISTVIQNYSINEVFLFFSKIESNLSQPHCVFWDFSHLQWNDAGCHLVNETQDIVTCQCTHLTSFSILMSPFVPSTIFPVVKWITYVGLGISIGSLILCLIIEALFWKQIKKSQTSHTRRICMVNIALSLLIADVWFIVGATVDTTVNPSGVCTAAVFFTHFFYLSLFFWMLMLGILLAYRIILVFHHMAQHLMMAVYFCLGYGCPLIISVITIAVTQPSNTYKRKDVCWLNWSNGSKPLLAFVVPALAIVAVNFVVVLLVLTKLWRPTVGERLSRDDKATIIRVGKSLLILTPLLGLTWGFGIGTIVDSQNLAWHVIFALLNAFQGFFILCFGILLDSKLRQLLFNKLSALSSWKQTEKQNSSDLSAKPKFSKPFNPLQNKGHYAFSHTGDSSDNIMLTQFVSNE |  |  |  |  | Cell-surface expression (% of WT) (ADGRF1 [2]; [3]): 87 ± 12 % of WT; Cell-surface expression (% of WT) (ADGRF1 [2]; ADGRF1 constructs, in parallel to A8-induced Gi activation): 94 ± 1 % of WT; Cell-surface expression (% of WT) (ADGRF1 [2]; ADGRF1 constructs, in parallel to A8-induced Gs activation): 104 ± 2 % of WT
9 | V689^ICL2A (protein, UniProt Q5T601 20-910, looked up, variant V689A) Adhesion G-protein coupled …: GFLGKNDGIKTKKELIVNKKKHLGPVEEYQLLLQVTYRDSKEKRDLRNFLKLLKPPLLWSHGLIRIIRAKATTDCNSLNGVLQCTCEDSYTWFPPSCLDPQNCYLHTAGALPSCECHLNNLSQSVNFCERTKIWGTFKINERFTNDLLNSSSAIYSKYANGIEIQLKKAYERIQGFESVQVTQFRNGSIVAGYEVVGSSSASELLSAIEHVAEKAKTALHKLFPLEDGSFRVFGKAQCNDIVFGFGSKDDEYTLPCSSGYRGNITAKCESSGWQVIRETCVLSLLEELNKNFSMIVGNATEAAVSSFVQNLSVIIRQNPSTTVGNLASVVSILSNISSLSLASHFRVSNSTMEDVISIADNILNSASVTNWTVLLREEKYASSRLLETLENISTLVPPTALPLNFSRKFIDWKGIPVNKSQLKRGYSYQIKMCPQNTSIPIRGRVLIGSDQFQRSLPETIISMASLTLGNILPVSKNGNAQVNGPVISTVIQNYSINEVFLFFSKIESNLSQPHCVFWDFSHLQWNDAGCHLVNETQDIVTCQCTHLTSFSILMSPFVPSTIFPVVKWITYVGLGISIGSLILCLIIEALFWKQIKKSQTSHTRRICMVNIALSLLIADVWFIVGATVDTTVNPSGVCTAAVFFTHFFYLSLFFWMLMLGILLAYRIILAFHHMAQHLMMAVGFCLGYGCPLIISVITIAVTQPSNTYKRKDVCWLNWSNGSKPLLAFVVPALAIVAVNFVVVLLVLTKLWRPTVGERLSRDDKATIIRVGKSLLILTPLLGLTWGFGIGTIVDSQNLAWHVIFALLNAFQGFFILCFGILLDSKLRQLLFNKLSALSSWKQTEKQNSSDLSAKPKFSKPFNPLQNKGHYAFSHTGDSSDNIMLTQFVSNE |  |  |  |  | Cell-surface expression (% of WT) (ADGRF1 [2]; [3]): 112 ± 3 % of WT; Cell-surface expression (% of WT) (ADGRF1 [2]; ADGRF1 constructs, in parallel to pF1-induced Gs activation): 114 ± 10 % of WT
